Measurements as given in article PMC12631003 (2025).

Legend:
[1] = test system: pre-let-7a-1 (RNA, miRNA) UUAGGGUCACACCCACCACUGGGAGAUAA; test: microscale thermophoresis; details: Na+ (185 mM NaCl, 8 mM Na2HPO4), no Mg2+; 1 mM EDTA, 0.05% Tween-20; 5 nM RNA
[2] = test system: miRNA21 (RNA, miRNA) GUUGACUGUUGAAUCUCAUGGCAAC; test: microscale thermophoresis; details: Na+ (185 mM NaCl, 8 mM Na2HPO4), no Mg2+; 1 mM EDTA, 0.05% Tween-20; 5 nM RNA; compounds up to 100-300 µM

Row | SMILES | K d [1] | binding [2]
1 | Cn1cnc2c(F)c(Nc3ccc(Br)cc3Cl)c(C(=O)NOCCO)cc21 | 217 µM | 
2 | N#CC[C@H](C1CCCC1)n1cc(-c2ncnc3[nH]ccc23)cn1 | 82.4 µM | 
3 | CCc1nc(C(N)=O)c(Nc2ccc(N3CCC(N4CCN(C)CC4)CC3)c(OC)c2)nc1NC1CCOCC1 | 29.4 µM | no
4 | CN1CCN(c2ccc(C(=O)Nc3n[nH]c4ccc(Cc5cc(F)cc(F)c5)cc34)c(NC3CCOCC3)c2)CC1 | 5.0 µM | no
